Common to all, as to format: cell-based, Staphylococcus pseudolugdunensis
Test [1] has as its system isolate B006. Put plainly: Disc diffusion antimicrobial susceptibility testing. Also: key: R—resistant; S—susceptible. On the procedure:
(§1) In vitro antimicrobial susceptibility testing for amoxicillin-clavulanate, cefazolin, clindamycin, erythromycin, gentamicin, levofloxacin, minocycline, penicillin, rifampin, trimethoprim/sulfamethoxazole (SXT) and vancomycin was determined by a disc diffusion method in accordance with Clinical and Laboratory Standards Institute guidelines (CLSI Performance standards for antimicrobial disk susceptibility tests; Approved standard, 9th ed. (2006) Clinical and Laboratory Standards Institute, Wayne, Pa.).
A general note: Agar diffusion results depend on both activity and mobility in agar.

Test [2] concerns isolate B060. The test is described as above. The method, then: as §1; also: key: R—resistant; S—susceptible
Test [3] relates to isolate B230. The test is described as above. The method, then: as §1
Test [4] relates to isolate B277. The test is described as above. The settings on record: isolate 8277. On the procedure:
as §1

The test system of test [5] is isolate B287. The test is described as above. The settings on record: isolate 8287. On the procedure: as §1; also: key: R—resistant; S—susceptible
The test system of test [6] is isolate B292. Described as above. The settings on record: isolate 13292. The method, then: as §1; also: key: R—resistant; S—susceptible
Test [7] deals with isolate B333. Described as above. On the procedure: as §1
The test system of test [8] is isolate B334. The test is described as above. The method, then: as §1; also: key: R—resistant; S—susceptible
Test [9] concerns isolate B354. The test is described as above. On the procedure:
as §1

Test [10] deals with isolate B715. Described as above. The settings on record: isolate 13715. On the procedure: as §1
Test [11] deals with isolate B739. Described as above. The settings on record: isolate 8739. On the procedure:
as §1

For test [12], the system named is isolate B837. The description is as above. On the procedure: as §1; also: key: R—resistant; S—susceptible
The test system of test [13] is 12 isolates. Briefly: Disc diffusion antimicrobial susceptibility testing, all isolates. On the procedure:
as §1
For antimicrobial susceptibility in this document: key: R—resistant; S—susceptible.

In the case of Gentamicin, the Antimicrobial susceptibility entry in [1], in test [2], in [3], in test [4], in test [5] and in test [6] was “S” each time. Besides, the Antimicrobial susceptibility entry in test [7], in [8], in test [9], in [10], in [11] and in test [12] was “S” in each case. For the same compound, in test [13], the “Susceptibility of all 12 isolates” value is listed as “susceptible”.

Consider `CC[C@H]1OC(=O)[C@H](C)[C@@H](O[C@H]2C[C@@](C)(OC)[C@@H](O)[C@H](C)O2)[C@H](C)[C@@H](O[C@@H]2O[C@H](C)C[C@H](N(C)C)[C@H]2O)[C@](C)(O)C[C@@H](C)C(=O)[C@H](C)[C@@H](O)[C@]1(C)O` [Erythromycin], for which the Antimicrobial susceptibility result in test [1] is “R”; in test [2], “S”; in test [3], “S”; in [4], “S”; in test [5], “S”; in test [6] it was “S”. In addition, the Antimicrobial susceptibility entry in test [7] was “R”; in [8], “R”; in test [9], “S”; in [10], “S”; in test [11] it was “R”; in test [12], “R”.

With `COc1cccc(OC)c1C(=O)N[C@@H]1C(=O)N2[C@@H]1SC(C)(C)[C@@H]2C(=O)O` [Methicillin], the Antimicrobial susceptibility entry in [1] was “R”; in [2], “S”; in test [3], “S”; in [4], “S”; in test [5], “S”; in test [6] it was “S”. The Antimicrobial susceptibility entry in test [7] is “S”; in test [8] it was “R”; in test [9], “S”; in test [10], “R”; in test [11] it was “R”; in [12], “R”.

With `Cc1nnc(SCC2=C(C(=O)O)N3C(=O)[C@@H](NC(=O)Cn4cnnn4)[C@H]3SC2)s1` [Cefazolin], the Antimicrobial susceptibility result in test [1] was “R”; in test [2], “S”; in test [3], “S”; in test [4], “S”; in [5], “S”; in test [6] it was “S”. Further, the Antimicrobial susceptibility entry in [7] was “S”; in test [8], “R”; in test [9], “S”; in test [10], “R”; in test [11], “R”; in test [12], “R”.

With `C[C@H]1COc2c(N3CCN(C)CC3)c(F)cc3c(=O)c(C(=O)O)cn1c23` [Levofloxacin], the Antimicrobial susceptibility entry in test [1] is “S”; in test [2] it was “S”; in [3], “R”; in test [4] it was “S”; in test [5] it was “R”; in [6], “S”. In addition, the Antimicrobial susceptibility entry in test [7] is “S”; in test [8] it was “R”; in [9], “S”; in test [10] it was “R”; in test [11] it was “S”; in [12], “S”.

With Penicillin, the Antimicrobial susceptibility entry in test [1] is listed as “R”; in [2] it was “R”; in test [3], “R”; in test [4] it was “S”; in [5], “R”; in test [6] it was “R”. Further, the Antimicrobial susceptibility result in test [7] was “R”; in test [8], “R”; in [9], “S”; in test [10], “R”; in test [11], “R”; in [12], “R”.

Consider Amoxicillin-clavulanate, for which the Antimicrobial susceptibility result in test [1] is “R”; in [2], “S”; in test [3] it was “S”; in test [4], “S”; in test [5], “S”; in test [6] it was “S”. Further, the Antimicrobial susceptibility entry is reported as “S” in [7]; “R” in test [8]; “S” in test [9]; “R” in test [10]; “R” in test [11]; “R” in test [12].

Consider `CN(C)c1ccc(O)c2c1C[C@H]1C[C@H]3[C@H](N(C)C)C(O)=C(C(N)=O)C(=O)[C@@]3(O)C(O)=C1C2=O` [Minocycline], for which the Antimicrobial susceptibility result in test [1], in test [2], in test [3], in test [4], in test [5] and in [6] was “S” each time. Besides, the Antimicrobial susceptibility result in test [7], in test [8], in [9], in test [10], in test [11] and in test [12] was “S” in each case.

For Trimethoprim/sulfamethoxazole, the Antimicrobial susceptibility result in test [1] was “S”; in [2], “R”; in test [3], “R”; in test [4], “S”; in test [5], “R”; in test [6] it was “S”. Moreover, the Antimicrobial susceptibility entry in test [7] is “S”; in test [8], “R”; in test [9], “S”; in test [10], “R”; in [11], “S”; in test [12] it was “S”.

In the case of `CO[C@H]1/C=C/O[C@@]2(C)Oc3c(C)c(O)c4c(O)c(c(/C=N/N5CCN(C)CC5)c(O)c4c3C2=O)NC(=O)/C(C)=C\C=C\[C@H](C)[C@H](O)[C@@H](C)[C@@H](O)[C@@H](C)[C@H](OC(C)=O)[C@@H]1C` [Rifampin], the Antimicrobial susceptibility entry in [1], in [2], in [3], in test [4], in [5] and in test [6] was “S” each time. Besides, the Antimicrobial susceptibility entry in test [7], in [8], in test [9], in test [10], in test [11] and in test [12] was “S” each time. Besides, the “Susceptibility of all 12 isolates” value in test [13] is “susceptible”.

In the case of `CCC[C@@H]1C[C@@H](C(=O)N[C@@H]([C@H]2O[C@H](SC)[C@H](O)[C@@H](O)[C@H]2O)[C@H](C)Cl)N(C)C1` [Clindamycin], the Antimicrobial susceptibility entry in [1], in [2], in test [3], in test [4], in [5] and in [6] was “S” each time. Besides, the Antimicrobial susceptibility entry is listed as “R” in test [7]; “R” in [8]; “S” in test [9]; “S” in test [10]; “R” in [11]; “R” in test [12].

Values taken from patent US20100240093A1, “Isolated Staphylococcus Pseudolugdunensis” (priority 2006, published 2010).
